# Results: patent US4195093A, “Furoyl- and thenoyl-aryloxyalkyl carboxylic acid derivatives, their preparation and their use in therapy” (Albert Rolland S.A., priority 1977, dated 1980)
# Counter-ions that a name gives are not always drawn. Like-named read-outs stand apart in the source and are kept apart here.
# Columns and labels:
# [1] = Acute toxicity orally in mice (method of BLISS); details: mouse, in vivo
# Method: The acute toxicity of the new compounds has been studied in mice orally, according to the method of BLISS (Quart. J. Pharm. Pharmacol. (1938) 2 192-216); with the exception of the compounds in Examples 3 and 13, which have an LD50 in the region of 700 mg/kg, all the other compounds have an LD50 above 1000 mg/kg.
# [2] = test system: phenol red in the blood; assay: Uricosuric activity: retention of phenol red in the blood of rats; assay type: in vivo; details: Rattus norvegicus, read-out: Maximum Ratio measured (phenol red in blood, treated to non-treated)
# Method: The uricosuric activity of the compounds has been shown by the method described by H. C. SCARBOROUGH and G. R. McKINNEY (J. Med. Pharm. Chem. (1962) 5 175) as well as by E. KREPPEL (Med. Exptl. (1959) 1 285); phenol red is administered intravenously to rats and the development of the concentration of this colourant in their blood is studied as a function of time. It is known that rats, which one hour before the beginning of the experiment have received an uricosuric agent, show, in comparison with non-treated animals, retention of phenol red in the blood.
# The ratio is that of the concentrations of phenol red found in the blood of animals which have received the test compounds at the dose indicated at the specified time to the concentrations for non-treated animals.
# [3] = Diuretic ability in mice (urine volume ratio treated/control); assay type: in vivo
# Method: The diuretic ability of the novel compounds according to the invention has been studied in mice. It is expressed in Table III in the form of a ratio of the volume of urine for the treated animals received during 2 and 4 hours after administration (at the indicated dose) of the test compound to the volume measured under the same conditions for the control animals.
# [4] = Solubility in aqueous medium (statement); assay type: physicochemical
# [5] = 0.75 h, 45 minutes after injection of the colourant
# [6] = 0.25 h, 15 minutes after injection of the colourant
# [7] = 1 h, 60 minutes after injection of the colourant
smiles,measurement,setting,value
"CCc1oc2ccccc2c1C(=O)c1cc(I)c(O)c(I)c1 [benziodarone, 2-ethyl-3-(4-hydroxy-3,5-diiodobenzoyl)-benzo[b]furane, reference compound]",LD50,[1]; po,1400 mg/kg
same,response vs control in vivo at 100 mg/kg,[2]; [5],53%
"O=C(O)COc1ccc(C(=O)c2ccoc2)c2ccccc12 [Example 3, [4-(3-Furoyl)-1-naphthlyloxy]-acetic acid]",LD50,"[1]; mice, oral, method of BLISS",~700 mg/kg
same,"Diuretic Ability, 0 to 2 hours (ratio of urine volume treated/control)",[3]; 20 mg/kg p.o.,1.53
same,"Diuretic Ability, 0 to 4 hours (ratio of urine volume treated/control)",[3]; 20 mg/kg p.o.,1.31
same,"Diuretic Ability, 0 to 2 hours (ratio of urine volume treated/control)",[3]; 50 mg/kg p.o.,1.48
same,"Diuretic Ability, 0 to 4 hours (ratio of urine volume treated/control)",[3]; 50 mg/kg p.o.,1.44
O=C(O)COc1ccc(C(=O)c2cc3ccccc3o2)c2ccccc12 [Example 12],response vs control in vivo at 50 mg/kg,[2]; [6],51%
O=C(O)COc1ccc(C(=O)c2ccsc2)c2ccccc12 [Example 10],response vs control in vivo at 100 mg/kg,"[2]; 0.5 h, 30 minutes after injection of the colourant",53%
same,"Diuretic Ability, 0 to 2 hours (ratio of urine volume treated/control)",[3]; 200 mg/kg p.o.,1.38
same,"Diuretic Ability, 0 to 4 hours (ratio of urine volume treated/control)",[3]; 200 mg/kg p.o.,1.77
"O=C(O)COc1ccc(C(=O)c2cccs2)c2ccccc12 [Example 1, [4-(2-Thenoyl)-1-naphthyloxy]-acetic acid]",response vs control in vivo at 50 mg/kg,[2]; [5],100%
same,response vs control in vivo at 100 mg/kg,[2]; [7],121%
O=C(O)CCOc1ccc(C(=O)c2cccs2)c2ccccc12 [Example 13],LD50,"[1]; mice, oral, method of BLISS",~700 mg/kg
"O=C(O)COc1ccc(C(=NO)c2cccs2)c2ccccc12 [Example 2, [4-(2-Thienyl-hydroxyiminomethyl)-1-naphthyloxy]-acetic acid]",response vs control in vivo at 100 mg/kg,[2]; [5],77%
Cc1ccc(C(=O)c2ccc(OCC(=O)O)c3ccccc23)s1 [Example 7],response vs control in vivo at 100 mg/kg,[2]; [6],44%
same,"Diuretic Ability, 0 to 2 hours (ratio of urine volume treated/control)",[3]; 50 mg/kg p.o.,2.01
same,"Diuretic Ability, 0 to 4 hours (ratio of urine volume treated/control)",[3]; 50 mg/kg p.o.,1.70
O=C(O)COc1c(Br)cc(C(=O)c2cccs2)c2ccccc12 [Example 6],response vs control in vivo at 50 mg/kg,[2]; [7],116%
O=C(O)CCOc1ccc(C(=O)c2ccco2)c2ccccc12 [Example 14],response vs control in vivo at 75 mg/kg,"[2]; 1 h, dose 75 mg/kg, 60 minutes after injection of the colourant",80%
O=C(O)COc1ccc(C(=O)c2cccs2)c2ccccc12 [tri(hydroxymethyl)methylamine salt],solubility in aqueous medium,[4],particularly useful because of its solubility in aqueous medium
